In paper PMC5218480 (PLoS ONE, 2017):

Tested on: MV-4-11 cells
Assay: Gene expression microarray analysis (Affymetrix PrimeView) and GSEA
Type: cell-based, human
Parameters: RFU PODN (11730768_x_at) / Fold change /veh PODN (11730768_x_at) / RFU LINC00158 (11744669_a_at) / Fold change /veh LINC00158 (11744669_a_at) / RFU DUSP10 (11751237_a_at) / Fold change /veh DUSP10 (11751237_a_at) / RFU ID3 (11757404_x_at) / Fold change /veh ID3 (11757404_x_at) / RFU PLEKHG5 (11737974_s_at) / Fold change /veh PLEKHG5 (11737974_s_at) / RFU LRRC4B (11730491_at) / Fold change /veh LRRC4B (11730491_at) / RFU GIMAP4 (11747438_a_at) / Fold change /veh GIMAP4 (11747438_a_at) / RFU KRT8 (11758183_x_at) / Fold change /veh KRT8 (11758183_x_at) / RFU CNN1 (11734310_a_at) / Fold change /veh CNN1 (11734310_a_at) / RFU VPS37D (11726825_at) / Fold change /veh VPS37D (11726825_at) / RFU C10orf10 (11716522_x_at) / Fold change /veh C10orf10 (11716522_x_at) / RFU KIR2DL2 /// KIR2DL4 /// KIR2DL5A /// KIR2DL5B /// KIR2DS1 /// KIR2DS2 /// KIR2DS3 /// KIR2DS4 /// KIR3DL3 /// KIR3DL3 /// KIR3DS1 (11738374_at) / Fold change /veh KIR2DL2 /// KIR2DL4 /// KIR2DL5A /// KIR2DL5B /// KIR2DS1 /// KIR2DS2 /// KIR2DS3 /// KIR2DS4 /// KIR3DL3 /// KIR3DL3 /// KIR3DS1 (11738374_at) / RFU C1QL1 (11718748_at) / Fold change /veh C1QL1 (11718748_at) / RFU TMPRSS4 (11747572_a_at) / Fold change /veh TMPRSS4 (11747572_a_at) / RFU HAMP (11756126_x_at) / Fold change /veh HAMP (11756126_x_at) / RFU RNFT2 (11725882_a_at) / Fold change /veh RNFT2 (11725882_a_at) / RFU NR4A2 (11747474_a_at) / Fold change /veh NR4A2 (11747474_a_at) / RFU ABCC12 (11746883_a_at) / Fold change /veh ABCC12 (11746883_a_at) / RFU TMEM136 (11760407_x_at) / Fold change /veh TMEM136 (11760407_x_at) / RFU CLDN22 /// WWC2 (11732394_at) / Fold change /veh CLDN22 /// WWC2 (11732394_at) / RFU HLA-DPB1 (11760878_x_at) / Fold change /veh HLA-DPB1 (11760878_x_at) / RFU SPINT1 (11716480_a_at) / Fold change /veh SPINT1 (11716480_a_at) / RFU GAP43 (11754022_s_at) / Fold change /veh GAP43 (11754022_s_at) / RFU A4GNT (11735810_at) / Fold change /veh A4GNT (11735810_at) / RFU PRB3 (11715151_x_at) / Fold change /veh PRB3 (11715151_x_at) / RFU TUBB4B (11761932_at) / Fold change /veh TUBB4B (11761932_at) / RFU CAPN14 (11732068_a_at) / Fold change /veh CAPN14 (11732068_a_at) / RFU TMCC2 (11721928_a_at) / Fold change /veh TMCC2 (11721928_a_at) / RFU IRGQ (11745062_a_at) / Fold change /veh IRGQ (11745062_a_at) / RFU FAM174B (11720279_a_at) / Fold change /veh FAM174B (11720279_a_at) / RFU TMPRSS4 (11748680_a_at) / Fold change /veh TMPRSS4 (11748680_a_at) / RFU FAM212B (11763350_a_at) / Fold change /veh FAM212B (11763350_a_at) / RFU PLEKHG5 (11743358_a_at) / Fold change /veh PLEKHG5 (11743358_a_at) / RFU ZSCAN30 (11745921_a_at) / Fold change /veh ZSCAN30 (11745921_a_at) / RFU CMKLR1 (11741424_a_at) / Fold change /veh CMKLR1 (11741424_a_at) / RFU LOC101060620 /// MAPK8IP1 (11723275_at) / Fold change /veh LOC101060620 /// MAPK8IP1 (11723275_at) / RFU SPTSSB (11747773_x_at) / Fold change /veh SPTSSB (11747773_x_at) / RFU PRSS12 (11739890_at) / Fold change /veh PRSS12 (11739890_at) / RFU BIN1 (11741810_x_at) / Fold change /veh BIN1 (11741810_x_at) / RFU WNT11 (11732464_a_at) / Fold change /veh WNT11 (11732464_a_at) / RFU C10orf10 (11716521_a_at) / Fold change /veh C10orf10 (11716521_a_at) / RFU C5orf56 (11738089_at) / Fold change /veh C5orf56 (11738089_at) / RFU CYB561 (11721691_x_at) / Fold change /veh CYB561 (11721691_x_at) / RFU ANKRD19P (11752326_a_at) / Fold change /veh ANKRD19P (11752326_a_at) / RFU OR2T12 /// OR2T33 /// OR2T8 (11738714_s_at) / Fold change /veh OR2T12 /// OR2T33 /// OR2T8 (11738714_s_at) / RFU VCAN (11748164_a_at) / Fold change /veh VCAN (11748164_a_at) / RFU JSRP1 (11732532_at) / Fold change /veh JSRP1 (11732532_at) / RFU KRTAP10-11 (11738290_x_at) / Fold change /veh KRTAP10-11 (11738290_x_at) / RFU MYO3A (11730013_a_at) / Fold change /veh MYO3A (11730013_a_at) / RFU EBF3 (11725865_a_at) / Fold change /veh EBF3 (11725865_a_at) / RFU CAMK2N1 (11719241_x_at) / Fold change /veh CAMK2N1 (11719241_x_at) / RFU C5orf56 (11738088_a_at) / Fold change /veh C5orf56 (11738088_a_at) / RFU OLFML3 (11715873_a_at) / Fold change /veh OLFML3 (11715873_a_at) / RFU LOC100653217 /// NTM (11731650_a_at) / Fold change /veh LOC100653217 /// NTM (11731650_a_at) / RFU MAPK11 (11762145_a_at) / Fold change /veh MAPK11 (11762145_a_at) / RFU FIZ1 (11724087_x_at) / Fold change /veh FIZ1 (11724087_x_at) / RFU OASL (11726364_x_at) / Fold change /veh OASL (11726364_x_at) / RFU SOX15 (11748057_x_at) / Fold change /veh SOX15 (11748057_x_at) / RFU CD79A (11719716_a_at) / Fold change /veh CD79A (11719716_a_at) / RFU HIST1H1D (11736915_at) / Fold change /veh HIST1H1D (11736915_at) / RFU CASKIN2 (11723855_a_at) / Fold change /veh CASKIN2 (11723855_a_at) / RFU LOC730098 (11760151_x_at) / Fold change /veh LOC730098 (11760151_x_at) / RFU OR4N2 (11742367_at) / Fold change /veh OR4N2 (11742367_at) / RFU PRRT2 (11749266_a_at) / Fold change /veh PRRT2 (11749266_a_at) / RFU SNX32 (11753110_a_at) / Fold change /veh SNX32 (11753110_a_at) / RFU CDHR5 (11726645_a_at) / Fold change /veh CDHR5 (11726645_a_at) / RFU RCAN1 (11760418_a_at) / Fold change /veh RCAN1 (11760418_a_at) / RFU FAM167A (11723789_a_at) / Fold change /veh FAM167A (11723789_a_at) / RFU FAM26E (11764081_at) / Fold change /veh FAM26E (11764081_at) / RFU ISYNA1 (11749810_s_at) / Fold change /veh ISYNA1 (11749810_s_at) / RFU ACY1 (11761880_at) / Fold change /veh ACY1 (11761880_at) / RFU 11764098_at / Fold change /veh 11764098_at / RFU SAMD14 (11745864_x_at) / Fold change /veh SAMD14 (11745864_x_at) / RFU NPB (11741838_a_at) / Fold change /veh NPB (11741838_a_at) / RFU TMPRSS6 (11731388_a_at) / Fold change /veh TMPRSS6 (11731388_a_at) / RFU KRTAP10-2 (11738614_at) / Fold change /veh KRTAP10-2 (11738614_at) / RFU ARHGAP8 /// PRR5-ARHGAP8 (11727945_x_at) / Fold change /veh ARHGAP8 /// PRR5-ARHGAP8 (11727945_x_at) / RFU KRTAP5-7 /// NADSYN1 (11734609_at) / Fold change /veh KRTAP5-7 /// NADSYN1 (11734609_at) / RFU RASL12 (11751679_a_at) / Fold change /veh RASL12 (11751679_a_at) / RFU CDKN2B (11736163_a_at) / Fold change /veh CDKN2B (11736163_a_at) / RFU PRF1 (11729649_at) / Fold change /veh PRF1 (11729649_at) / RFU, ZNF638 /// ZNF638-IT1 / Fold change vs veh, ZNF638 /// ZNF638-IT1 / RFU, PANK3 / Fold change vs veh, PANK3 / RFU, SH3YL1 / Fold change vs veh, SH3YL1 / RFU, ZEB2 / Fold change vs veh, ZEB2 / RFU, NRIP1 / Fold change vs veh, NRIP1 / RFU, PTTG1IP / Fold change vs veh, PTTG1IP / RFU, CAPN2 / Fold change vs veh, CAPN2 / RFU, MED14 / Fold change vs veh, MED14 / RFU, SNORA58 / Fold change vs veh, SNORA58 / RFU, C1orf63 / Fold change vs veh, C1orf63 / RFU, LRRFIP1 / Fold change vs veh, LRRFIP1 / RFU, NDUFAF7 / Fold change vs veh, NDUFAF7 / RFU, SLC12A2 / Fold change vs veh, SLC12A2 / RFU, IBTK / Fold change vs veh, IBTK / RFU, ESF1 / Fold change vs veh, ESF1 / Fold change vs veh, TMEM50B / RFU, TAOK1 / Fold change vs veh, TAOK1 / RFU, ACBD3 / Fold change vs veh, ACBD3 / RFU, TMA16 / Fold change vs veh, TMA16 / RFU, RWDD3 / Fold change vs veh, RWDD3 / RFU, BCAT1 / Fold change vs veh, BCAT1 / RFU, EDEM3 / Fold change vs veh, EDEM3 / RFU, TMEM33 / Fold change vs veh, TMEM33 / RFU, WDR75 / Fold change vs veh, WDR75 / RFU, AHCTF1 / Fold change vs veh, AHCTF1 / RFU, TFRC / Fold change vs veh, TFRC / RFU, ZDHHC17 / Fold change vs veh, ZDHHC17 / RFU, NOM1 / Fold change vs veh, NOM1 / RFU, ARL8B / Fold change vs veh, ARL8B / RFU, ZBTB11 / Fold change vs veh, ZBTB11 / RFU, TAMM41 / Fold change vs veh, TAMM41 / RFU, KIAA1704 /// LOC100996395 / Fold change vs veh, KIAA1704 /// LOC100996395 / RFU, ING1 / Fold change vs veh, ING1 / RFU, TRMT61B / Fold change vs veh, TRMT61B / RFU, FUBP3 / Fold change vs veh, FUBP3 / RFU, TP53 / Fold change vs veh, TP53 / RFU, TNKS2 / Fold change vs veh, TNKS2 / RFU, ZFP14 / Fold change vs veh, ZFP14 / RFU, ACTR2 / Fold change vs veh, ACTR2 / RFU, PPP3R1 / Fold change vs veh, PPP3R1 / RFU, PIK3R1 / Fold change vs veh, PIK3R1 / RFU, HNRNPA1 / Fold change vs veh, HNRNPA1 / RFU, RNF170 / Fold change vs veh, RNF170 / RFU, ZNF28 / Fold change vs veh, ZNF28 / RFU, RNGTT / Fold change vs veh, RNGTT / RFU, OGT / Fold change vs veh, OGT / RFU, BRD1 / Fold change vs veh, BRD1 / RFU, MARS / Fold change vs veh, MARS / RFU, ZNF655 / Fold change vs veh, ZNF655 / RFU, FAHD1 / Fold change vs veh, FAHD1 / RFU, BDP1 / Fold change vs veh, BDP1 / RFU, LRRCC1 / Fold change vs veh, LRRCC1 / RFU, ARID1A / Fold change vs veh, ARID1A / RFU, ZNF146 / Fold change vs veh, ZNF146 / RFU, ZNF330 / Fold change vs veh, ZNF330 / RFU, GPN3 / Fold change vs veh, GPN3 / RFU, C9orf123 / Fold change vs veh, C9orf123 / RFU, N4BP2L2 / Fold change vs veh, N4BP2L2 / RFU, ARFIP1 / Fold change vs veh, ARFIP1 / RFU, FAM179B / Fold change vs veh, FAM179B / RFU, BCL10 / Fold change vs veh, BCL10 / RFU, UHRF1BP1L / Fold change vs veh, UHRF1BP1L / RFU, BET1 / Fold change vs veh, BET1 / RFU, CNOT2 / Fold change vs veh, CNOT2 / RFU, ZNF268 / Fold change vs veh, ZNF268 / Fold change vs veh, ZNF507 / RFU, DGCR2 / Fold change vs veh, DGCR2 / RFU, WDSUB1 / Fold change vs veh, WDSUB1 / Fold change vs veh, HSP90B1 /// MIR3652 / RFU, ADSS / Fold change vs veh, ADSS / RFU, GK / Fold change vs veh, GK / RFU, ZNF148 / Fold change vs veh, ZNF148 / RFU, TAF9 / Fold change vs veh, TAF9 / RFU, SLC1A5 / Fold change vs veh, SLC1A5 / RFU, SLMO2 / Fold change vs veh, SLMO2 / RFU, ABCC4 / Fold change vs veh, ABCC4 / RFU, LOC101060439 /// RAP1B / Fold change vs veh, LOC101060439 /// RAP1B / RFU, RFX7 / Fold change vs veh, RFX7 / RFU, GTPBP10 / Fold change vs veh, GTPBP10 / RFU, CNEP1R1 / Fold change vs veh, CNEP1R1 / RFU, BIVM-ERCC5 /// ERCC5 / Fold change vs veh, BIVM-ERCC5 /// ERCC5 / RFU, ILF3 / Fold change vs veh, ILF3 / RFU 11762660_at / Fold change /veh 11762660_at / RFU VCAN (11757783_s_at) / Fold change /veh VCAN (11757783_s_at) / RFU DDX43 (11728927_at) / Fold change /veh DDX43 (11728927_at) / RFU KRT8 (11758188_x_at) / Fold change /veh KRT8 (11758188_x_at) / RFU NKD1 (11759106_at) / Fold change /veh NKD1 (11759106_at) / RFU SRD5A1 (11742802_a_at) / Fold change /veh SRD5A1 (11742802_a_at) / RFU TPSAB1 /// TPSB2 (11721975_s_at) / Fold change /veh TPSAB1 /// TPSB2 (11721975_s_at) / RFU GSTM3 (11746129_a_at) / Fold change /veh GSTM3 (11746129_a_at) / RFU IL23R (11737362_x_at) / Fold change /veh IL23R (11737362_x_at) / RFU TMEM51 (11727254_a_at) / Fold change /veh TMEM51 (11727254_a_at) / RFU PIWIL2 (11732686_x_at) / Fold change /veh PIWIL2 (11732686_x_at) / RFU ORM1 (11744905_x_at) / Fold change /veh ORM1 (11744905_x_at) / RFU CCDC152 (11743942_at) / Fold change /veh CCDC152 (11743942_at) / RFU ECM1 (11717891_a_at) / Fold change /veh ECM1 (11717891_a_at) / RFU IL23R (11748794_a_at) / Fold change /veh IL23R (11748794_a_at) / RFU TNFAIP8L3 (11732012_x_at) / Fold change /veh TNFAIP8L3 (11732012_x_at) / RFU MBOAT4 (11741988_at) / Fold change /veh MBOAT4 (11741988_at) / RFU 11764193_at / Fold change /veh 11764193_at / RFU TMEM53 (11763286_at) / Fold change /veh TMEM53 (11763286_at) / RFU MAGEB2 (11727129_at) / Fold change /veh MAGEB2 (11727129_at) / RFU TMEM200A (11744735_a_at) / Fold change /veh TMEM200A (11744735_a_at) / RFU CCDC152 (11751479_a_at) / Fold change /veh CCDC152 (11751479_a_at) / RFU FAM211A (11726209_a_at) / Fold change /veh FAM211A (11726209_a_at) / RFU RGS16 (11746705_a_at) / Fold change /veh RGS16 (11746705_a_at) / RFU VCAN (11755009_s_at) / Fold change /veh VCAN (11755009_s_at) / RFU RHOB (11743442_s_at) / Fold change /veh RHOB (11743442_s_at) / RFU RGS16 (11720943_a_at) / Fold change /veh RGS16 (11720943_a_at) / RFU RGS16 (11720944_at) / Fold change /veh RGS16 (11720944_at) / RFU, VPS4B / Fold change vs veh, VPS4B / RFU, CREB1 / Fold change vs veh, CREB1 / RFU, DNAJC13 / Fold change vs veh, DNAJC13 / RFU, GNAQ / Fold change vs veh, GNAQ / RFU, CDK5R1 / Fold change vs veh, CDK5R1 / RFU, ZRANB3 / Fold change vs veh, ZRANB3 / RFU, CUL4A / Fold change vs veh, CUL4A / RFU, CCNY / Fold change vs veh, CCNY / RFU, UFL1 / Fold change vs veh, UFL1 / RFU, COG3 / Fold change vs veh, COG3 / RFU, DIAPH2 / Fold change vs veh, DIAPH2 / RFU, SKA2 / Fold change vs veh, SKA2 / RFU, AFF3 / Fold change vs veh, AFF3 / RFU, LMF1 / Fold change vs veh, LMF1 / RFU, IPO11 / Fold change vs veh, IPO11 / RFU, DFFB / Fold change vs veh, DFFB / RFU, FOXP1 / Fold change vs veh, FOXP1 / RFU, CARD8 / Fold change vs veh, CARD8 / RFU, STRN3 / Fold change vs veh, STRN3 / RFU, ADK / Fold change vs veh, ADK / RFU, RASSF2 / Fold change vs veh, RASSF2 / RFU, WIPF1 / Fold change vs veh, WIPF1 / RFU, LARP1B / Fold change vs veh, LARP1B / RFU, RASA1 / Fold change vs veh, RASA1 / RFU, RB1 / Fold change vs veh, RB1 / RFU, PPFIA1 / Fold change vs veh, PPFIA1 / RFU, MAT2A / Fold change vs veh, MAT2A / RFU, CCT5 / Fold change vs veh, CCT5 / RFU, WDR92 / Fold change vs veh, WDR92 / RFU, CUX1 / Fold change vs veh, CUX1 / RFU, TTC7A / Fold change vs veh, TTC7A / RFU, TMEM135 / Fold change vs veh, TMEM135 / RFU, DEPTOR / Fold change vs veh, DEPTOR / RFU, CPM / Fold change vs veh, CPM / RFU, DNAJB6 / Fold change vs veh, DNAJB6 / RFU, CACNA2D3 / Fold change vs veh, CACNA2D3 / RFU, DTX4 / Fold change vs veh, DTX4 / RFU, TFCP2 / Fold change vs veh, TFCP2 / RFU, GMCL1 /// GMCL1P1 / Fold change vs veh, GMCL1 /// GMCL1P1 / RFU, AEBP2 / Fold change vs veh, AEBP2 / RFU, SNHG1 /// SNORD22 /// SNORD25 /// SNORD26 /// SNORD27 /// SNORD28 /// SNORD29 /// SNORD31 / Fold change vs veh, SNHG1 /// SNORD22 /// SNORD25 /// SNORD26 /// SNORD27 /// SNORD28 /// SNORD29 /// SNORD31 / Fold change (Aza/veh), C12orf56 (ProbeSet 11735607_a_at) / Fold change (ACY-1035/veh), C12orf56 (ProbeSet 11735607_a_at) / Fold change (Aza/veh), FGFR1OP (ProbeSet 11751329_s_at) / Fold change (ACY-1035/veh), FGFR1OP (ProbeSet 11751329_s_at) / Fold change (Aza/veh), VPS36 (ProbeSet 11739960_a_at) / Fold change (ACY-1035/veh), VPS36 (ProbeSet 11739960_a_at) / RFU SYPL1 (11715823_x_at) / Fold change /veh SYPL1 (11715823_x_at) / RFU IGFBP7 (11715501_s_at) / Fold change /veh IGFBP7 (11715501_s_at) / RFU REEP3 (11722064_at) / Fold change /veh REEP3 (11722064_at) / RFU IGLL1 (11728026_x_at) / Fold change /veh IGLL1 (11728026_x_at): dose or concentration left out as unconfirmed
Conditions: ProbeSet 11740528_a_at; LIST D

Nc1ccc(-c2cccs2)cc1NC(=O)c1ccc2c(c1)cc(C1CC1)n2CCN1CCOCC1 [ACY-1035]
RFU, AFF3: 703.28 RFU
